Experiment: Toxicity in brine shrimps larvae assessed as mortality at 10 ug/ml after 24 hrs
Assay type: organism-based
Settings: artemia, brine shrimp larvae; read-out: Activity

Compound | mortality at 24 h, 10 ug/ml [%]
C[C@H]1C/C=C/[C@@H](O)[C@@H](O)CC/C=C/c2cc(O)cc(O)c2C(=O)O1 [AIGIALOMYCIN D] | 76.7
C[C@H](O)C/C=C/CCCCc1cc2cc(O)cc(O)c2c(=O)o1 [FUSARIUMIN] | 78.2
C[C@@H]1C[C@@H](O)/C=C\[C@H](O)CCC(=O)Cc2c(Cl)c(O)cc(O)c2C(=O)O1 [POCHONIN N] | 82.8
